Patent publication US10064873B2, “Compounds and compositions for treating HIV with derivatives of Betulin” (GlaxoSmithKline LLC, priority 2011, dated 2018)

tested on: HIV NL4-3 wt; experiment: MT4 antiviral assay, NL4-3 strain wild type; assay type: cell-based, HIV-1; settings: Human immunodeficiency virus 1, NL43, MT4, read-out: EC50 NL4-3 wt (nM)

Row | Compound | EC50 [nM]
1 | CC(C)C1=C2[C@H]3CC[C@@H]4[C@@]5(C)CC[C@H](OC(=O)CC(C)(C)C(=O)O)C(C)(C)[C@@H]5CC[C@@]4(C)[C@]3(C)CC[C@@]2(CCN(C)Cc2ccc(Cl)cc2)CC1=O [Example 12, 4-(((3aR,5aR,5bR,7aR,9S,11aR,11bR,13aS)-3a-(2-((4-Chlorobenzyl)(methyl)amino)ethyl)-1-isopropyl-5a,5b,8,8,11a-pentamethyl-2-oxo-3,3a,4,5,5a,5b,6,7,7a,8,9,10,11,11a,11b,12,13,13a-octadecahydro-2H-cyclopenta[a]chrysen-9-yl)oxy)-2,2-dimethyl-4-oxobutanoic acid] | 4.5

same assay, conditions: Human immunodeficiency virus 1, NL43; MT4 cells; read-out: EC50 NL4-3 wt

Row | Compound | EC50 [nM]
2 | CC(C)C1=C2[C@H]3CC[C@@H]4[C@@]5(C)CC[C@H](OC(=O)CC(C)(C)C(=O)O)C(C)(C)[C@@H]5CC[C@@]4(C)[C@]3(C)CC[C@@]2(CCN(CCN(C)C)C2(c3ccc(Cl)cc3)CC2)CC1=O [Example 11, 4-(((3aR,5aR,5bR,7aR,9S,11aR,11bR,13aS)-3a-(2-((1-(4-Chlorophenyl)cyclopropyl)(2-(dimethylamino)ethyl)amino)ethyl)-1-isopropyl-5a,5b,8,8,11a-pentamethyl-2-oxo-3,3a,4,5,5a,5b,6,7,7a,8,9,10,11,11a,11b,12,13,13a-octadecahydro-2H-cyclopenta[a]chrysen-9-yl)oxy)-2,2-dimethyl-4-oxobutanoic acid] | 6.3
3 | CC(=O)N(CC[C@@]12CC[C@]3(C)[C@H](CC[C@@H]4[C@@]5(C)CC[C@H](OC(=O)CC(C)(C)C(=O)O)C(C)(C)[C@@H]5CC[C@]43C)C1=C(C(C)C)C(=O)C2)Cc1ccc(Cl)cc1 [Example 13, 4-(((3aR,5aR,5bR,7aR,9S,11aR,11bR,13aS)-3a-(2-(N-(4-Chlorobenzyl)acetamido)ethyl)-1-isopropyl-5a,5b,8,8,11a-pentamethyl-2-oxo-3,3a,4,5,5a,5b,6,7,7a,8,9,10,11,11a,11b,12,13,13a-octadecahydro-2H-cyclopenta[a]chrysen-9-yl)oxy)-2,2-dimethyl-4-oxobutanoic acid] | 1.6
4 | CC(C)C1=C2[C@H]3CC[C@@H]4[C@@]5(C)CC[C@H](OC(=O)CC(C)(C)C(=O)O)C(C)(C)[C@@H]5CC[C@@]4(C)[C@]3(C)CC[C@@]2([C@@H](O)CNCc2ccc(Cl)cc2)CC1=O [Example 14, 4-(((3aR,5aR,5bR,7aR,9S,11aR,11bR,13aS)-3a-((R)-2-((4-Chlorobenzyl)amino)-1-hydroxyethyl)-1-isopropyl-5a,5b,8,8,11a-pentamethyl-2-oxo-3,3a,4,5,5a,5b,6,7,7a,8,9,10,11,11a,11b,12,13,13a-octadecahydro-2H-cyclopenta[a]chrysen-9-yl)oxy)-2,2-dimethyl-4-oxobutanoic acid] | 2.1
5 | CC(C)C1=C2[C@H]3CC[C@@H]4[C@@]5(C)CC[C@H](OC(=O)CC(C)(C)C(=O)O)C(C)(C)[C@@H]5CC[C@@]4(C)[C@]3(C)CC[C@@]2([C@H](O)CNCc2ccc(Cl)cc2)CC1=O [Example 15, 4-(((3aR,5aR,5bR,7aR,9S,11aR,11bR,13aS)-3a-((S)-2-((4-Chlorobenzyl)amino)-1-hydroxyethyl)-1-isopropyl-5a,5b,8,8,11a-pentamethyl-2-oxo-3,3a,4,5,5a,5b,6,7,7a,8,9,10,11,11a,11b,12,13,13a-octadecahydro-2H-cyclopenta[a]chrysen-9-yl)oxy)-2,2-dimethyl-4-oxobutanoic acid] | 6.9
6 | CC(=O)O[C@@H](CNCc1ccc(Cl)cc1)[C@@]12CC[C@]3(C)[C@H](CC[C@@H]4[C@@]5(C)CC[C@H](OC(=O)CC(C)(C)C(=O)O)C(C)(C)[C@@H]5CC[C@]43C)C1=C(C(C)C)C(=O)C2 [Example 16, 4-(((3aR,5aR,5bR,7aR,9S,11aR,11bR,13aS)-3a-((R)-1-Acetoxy-2-((4-chlorobenzyl)amino)ethyl)-1-isopropyl-5a,5b,8,8,11a-pentamethyl-2-oxo-3,3a,4,5,5a,5b,6,7,7a,8,9,10,11,11a,11b,12,13,13a-octadecahydro-2H-cyclopenta[a]chrysen-9-yl)oxy)-2,2-dimethyl-4-oxobutanoic acid] | 11
7 | CC(=O)O[C@H](CNCc1ccc(Cl)cc1)[C@@]12CC[C@]3(C)[C@H](CC[C@@H]4[C@@]5(C)CC[C@H](OC(=O)CC(C)(C)C(=O)O)C(C)(C)[C@@H]5CC[C@]43C)C1=C(C(C)C)C(=O)C2 [Example 17, 4-(((3aR,5aR,5bR,7aR,9S,11aR,11bR,13aS)-3a-((S)-1-Acetoxy-2-((4-chlorobenzyl)amino)ethyl)-1-isopropyl-5a,5b,8,8,11a-pentamethyl-2-oxo-3,3a,4,5,5a,5b,6,7,7a,8,9,10,11,11a,11b,12,13,13a-octadecahydro-2H-cyclopenta[a]chrysen-9-yl)oxy)-2,2-dimethyl-4-oxobutanoic acid] | 8.7
8 | CC(=O)O[C@H](CN(CCN(C)C)Cc1ccc(Cl)cc1)[C@@]12CC[C@]3(C)[C@H](CC[C@@H]4[C@@]5(C)CC[C@H](OC(=O)CC(C)(C)C(=O)O)C(C)(C)[C@@H]5CC[C@]43C)C1=C(C(C)C)C(=O)C2 [Example 20, 4-(((3aR,5aR,5bR,7aR,9S,11aR,11bR,13aS)-3a-((S)-1-Acetoxy-2-((4-chlorobenzyl)(2-(dimethylamino)ethyl)amino)ethyl)-1-isopropyl-5a,5b,8,8,11a-pentamethyl-2-oxo-3,3a,4,5,5a,5b,6,7,7a,8,9,10,11,11a,11b,12,13,13a-octadecahydro-2H-cyclopenta[a]chrysen-9-yl)oxy)-2,2-dimethyl-4-oxobutanoic acid] | 2.3
9 | CC(=O)O[C@@H](CN(CCN(C)C)Cc1ccc(Cl)cc1)[C@@]12CC[C@]3(C)[C@H](CC[C@@H]4[C@@]5(C)CC[C@H](OC(=O)CC(C)(C)C(=O)O)C(C)(C)[C@@H]5CC[C@]43C)C1=C(C(C)C)C(=O)C2 [Example 21, 4-(((3aR,5aR,5bR,7aR,9S,11aR,11bR,13aS)-3a-((R)-1-Acetoxy-2-((4-chlorobenzyl)(2-(dimethylamino)ethyl)amino)ethyl)-1-isopropyl-5a,5b,8,8,11a-pentamethyl-2-oxo-3,3a,4,5,5a,5b,6,7,7a,8,9,10,11,11a,11b,12,13,13a-octadecahydro-2H-cyclopenta[a]chrysen-9-yl)oxy)-2,2-dimethyl-4-oxobutanoic acid] | 76.5
10 | CC(C)C1=C2[C@H]3CC[C@@H]4[C@@]5(C)CC[C@H](OC(=O)CC(C)(C)CC(=O)O)C(C)(C)[C@@H]5CC[C@@]4(C)[C@]3(C)CC[C@@]2([C@@H](O)CN(CCN(C)C)Cc2ccc(Cl)cc2)CC1=O [Example 22, 5-(((3aR,5aR,5bR,7aR,9S,11aR,11bR,13aS)-3a-((R)-2-((4-Chlorobenzyl)(2-(dimethylamino)ethyl)amino)-1-hydroxyethyl)-1-isopropyl-5a,5b,8,8,11a-pentamethyl-2-oxo-3,3a,4,5,5a,5b,6,7,7a,8,9,10,11,11a,11b,12,13,13a-octadecahydro-2H-cyclopenta[a]chrysen-9-yl)oxy)-3,3-dimethyl-5-oxopentanoic acid] | 3.3
11 | CC(C)C1=C2[C@H]3CC[C@@H]4[C@@]5(C)CC[C@H](OC(=O)CC(C)(C)CC(=O)O)C(C)(C)[C@@H]5CC[C@@]4(C)[C@]3(C)CC[C@@]2([C@H](O)CN(CCN(C)C)Cc2ccc(Cl)cc2)CC1=O [Example 23, 5-(((3aR,5aR,5bR,7aR,9S,11aR,11bR,13aS)-3a-((S)-2-((4-Chlorobenzyl)(2-(dimethylamino)ethyl)amino)-1-hydroxyethyl)-1-isopropyl-5a,5b,8,8,11a-pentamethyl-2-oxo-3,3a,4,5,5a,5b,6,7,7a,8,9,10,11,11a,11b,12,13,13a-octadecahydro-2H-cyclopenta[a]chrysen-9-yl)oxy)-3,3-dimethyl-5-oxopentanoic acid] | 4.9
12 | CC(C)C1=C2[C@H]3CC[C@@H]4[C@@]5(C)CC[C@H](OC(=O)CC(C)(C)C(=O)O)C(C)(C)[C@@H]5CC[C@@]4(C)[C@]3(C)CC[C@@]2([C@H](O)CNCc2ccccc2Cl)CC1=O [Example 24, 4-(((3aR,5aR,5bR,7aR,9S,11aR,11bR,13aS)-3a-((S)-2-((2-Chlorobenzyl)amino)-1-hydroxyethyl)-1-isopropyl-5a,5b,8,8,11a-pentamethyl-2-oxo-3,3a,4,5,5a,5b,6,7,7a,8,9,10,11,11a,11b,12,13,13a-octadecahydro-2H-cyclopenta[a]chrysen-9-yl)oxy)-2,2-dimethyl-4-oxobutanoic acid] | 40.4
13 | CC(C)C1=C2[C@H]3CC[C@@H]4[C@@]5(C)CC[C@H](OC(=O)CC(C)(C)C(=O)O)C(C)(C)[C@@H]5CC[C@@]4(C)[C@]3(C)CC[C@@]2([C@@H](O)CNCc2ccccc2Cl)CC1=O [Example 25, 4-(((3aR,5aR,5bR,7aR,9S,11aR,11bR,13aS)-3a-((R)-2-((2-chlorobenzyl)amino)-1-hydroxyethyl)-1-isopropyl-5a,5b,8,8,11a-pentamethyl-2-oxo-3,3a,4,5,5a,5b,6,7,7a,8,9,10,11,11a,11b,12,13,13a-octadecahydro-2H-cyclopenta[a]chrysen-9-yl)oxy)-2,2-dimethyl-4-oxobutanoic acid] | 14.7
14 | CC(=O)O[C@H](CNCc1ccc(F)cc1)[C@@]12CC[C@]3(C)[C@H](CC[C@@H]4[C@@]5(C)CC[C@H](OC(=O)CC(C)(C)C(=O)O)C(C)(C)[C@@H]5CC[C@]43C)C1=C(C(C)C)C(=O)C2 [Example 26, 4-(((3aR,5aR,5bR,7aR,9S,11aR,11bR,13aS)-3a-((S)-1-Acetoxy-2-((4-fluorobenzyl)amino)ethyl)-1-isopropyl-5a,5b,8,8,11a-pentamethyl-2-oxo-3,3a,4,5,5a,5b,6,7,7a,8,9,10,11,11a,11b,12,13,13a-octadecahydro-2H-cyclopenta[a]chrysen-9-yl)oxy)-2,2-dimethyl-4-oxobutanoic acid] | 4.9
15 | CC(=O)O[C@@H](CNCc1ccc(F)cc1)[C@@]12CC[C@]3(C)[C@H](CC[C@@H]4[C@@]5(C)CC[C@H](OC(=O)CC(C)(C)C(=O)O)C(C)(C)[C@@H]5CC[C@]43C)C1=C(C(C)C)C(=O)C2 [Example 27, 4-(((3aR,5aR,5bR,7aR,9S,11aR,11bR,13aS)-3a-((R)-1-acetoxy-2-((4-fluorobenzyl)amino)ethyl)-1-isopropyl-5a,5b,8,8,11a-pentamethyl-2-oxo-3,3a,4,5,5a,5b,6,7,7a,8,9,10,11,11a,11b,12,13,13a-octadecahydro-2H-cyclopenta[a]chrysen-9-yl)oxy)-2,2-dimethyl-4-oxobutanoic acid] | 8.2
